A short description of series [1]: Cysteine reactivity probe assay (HPLC). Also noted: unit not given here. The note with it: cysteine in phosphate buffer pH 7.4, HPLC; unit not given. From the text: An additional measurement made on some compounds of the invention is the cysteine reactivity. This reactivity measurement gives an indication of the likelihood that a compound will react with cysteine residues in the eye, and so is a measure of the likelihood of development of sensitization in the eye to that compound. […] In general, substituents that are more highly electron withdrawing, such as sulfonyl or carbonyl moieties adjacent to the thiazole ring, increase cysteine reactivity.
2. Cysteine reactivity was measured by the following probe assay procedure. Three stock solutions of: A) the CAI compound to be tested in […] phosphate buffer; B) cysteine ([…]) in 50 mM phosphate buffer at pH 7.4; and C) phosphate buffer (50 mM) at pH 7.4, were prepared. Each solution was deoxygenated by bubbling with N2 for 10-15 min.
Reaction mixtures were prepared in triplicate by mixing equal volumes (1 mL) of two stock solutions as follows:
Hydrolytic or other chemical reactivity was detected by comparison of solutions I and II. Cysteine related reactions were detected by comparison of solutions II and III. All samples were assayed using HPLC under constant conditions and over a short period of time to minimize experimental variations in peak heights not related to CAI concentration differences. Each of the three solutions were assayed in sequence to give three sets of experimental values: Ia, IIa, IIIa, Ib, IIb, IIIb, Ic, IIc, IIIc and each set was compared separately. Mean and standard deviations of the three sets were recorded.

The target of series [2] is T1, (Homo sapiens, UniProt P00918).
T1 construct: pure CA11 enzyme from human erythrocyte; from tissue; host or cells: human erythrocytes (purified enzyme)
The experiment in a line: Carbonic anhydrase activity, micromethod of Maren (time to lower pH of CO2-saturated carbonate/bicarbonate buffer, phenol red endpoint). The settings on record: pure enzyme from human erythrocyte; 0°-4° C.; pH 9.9 to 6.8. It is filed as biochemical. How it is done: 1. Carbonic anhydrase activity was assayed according to the micromethod of Maren (J. PharmacoI. Exptl. Therap., 130, 26-29, 1960). All solutions and reagents were maintained at 0°-4° C. The final assay mixture contained 16 mM phenol red, added enzyme and 62.5 mM sodium carbonate/bicarbonate. Its volume was kept constant at 0.8 mL. The time required for the added enzyme to lower the pH of CO2-saturated carbonate/bicarbonate buffer from pH 9.9 to 6.8 was measured using the color change of phenol red as endpoint. T1 is the time recorded for the reaction containing no enzyme. T2 is the time recorded for the reaction containing pure CA11 enzyme from human erythrocyte, or an unknown amount in a sample. Enzyme activities (unit) were calculated using the formula:
Unit/ug=(T1 -T2)(T2 *ug protein used in assay)
IC50 of a carbonic anhydrase inhibitor is the concentration that lowers the enzyme activity to half.

SMILES strings stand for the structures. Some results are limits rather than exact numbers.

As a reminder, the IC50 is the concentration that inhibits the measured activity by half. As for `NS(=O)(=O)c1cnc(S(=O)(=O)c2ccccc2)s1` [2-Phenylsulfonyl-5-thiazole sulfonamide], the Cysteine reactivity result in series [1] is reported as “reactive”. Further, in series [2], the IC50 came out at 5.5 nM.

With `NS(=O)(=O)c1cnc(Sc2ccccc2)s1` [2-Phenylthio-5-thiazole sulfonamide, 2-Thiophenyl-5-thiazole sulfonamide], the Cysteine reactivity entry in series [1] is “N.R”. The IC50 in series [2] came out at 5.5 nM.

Turning to `NS(=O)(=O)c1ncc(Cc2ccccc2)s1` [5-Benzyl-2-thiazole sulfonamide], in series [2], inhibition was half-maximal at 9.3 nM (IC50).

Molecule `NS(=O)(=O)c1ncc(Br)s1` [5-Bromo-2-thiazole sulfonamide] showed an IC50 in series [2] of 7.8 nM.

Turning to `NS(=O)(=O)c1nccs1` [2-Thiazole sulfonamide], the Cysteine reactivity entry in series [1] is given as “N.R”. In series [2], this molecule returned an IC50 of 61 nM.

Turning to `NS(=O)(=O)c1cnc(C(=O)C2CC2)s1` [2-(1-Ketocyclopropyl)-5-thiazole sulfonamide], the Cysteine reactivity in series [1] is given as less than 0.000024. This molecule also yielded an IC50 in series [2] of 3.5 nM.

Regarding `NS(=O)(=O)c1ncc(-c2ccccc2)s1` [5-Phenyl-2-thiazole sulfonamide], the half-maximal inhibitory concentration (IC50) in series [2] came to 6 nM.

With `CCS(=O)(=O)c1ncc(S(N)(=O)=O)s1` [2-(Ethylsulfonyl)-5-thiazole sulfonamide, 2-Ethylsulfonyl-5-thiazole sulfonamide], in series [1], the Cysteine reactivity entry is recorded as “reactive”. Further, half-maximal inhibition in series [2] (IC50) required 6.7 nM.

For the molecule `NS(=O)(=O)c1cnc(-c2ccccc2)s1` [2-Phenyl-5-thiazole sulfonamide], the IC50 in series [2] came to 20 nM.

`NS(=O)(=O)c1ncc(C(=O)c2ccccc2)s1` [5-Benzoyl-2-thiazole sulfonamide]: the Cysteine reactivity result in series [1] is “reactive”. In series [2], this molecule returned an IC50 of 5 nM.

`CCSc1cnc(S(N)(=O)=O)s1` [5-(Ethylthio)-2-thiazole sulfonamide] came in with a Cysteine reactivity in series [1] of 0.000024. This molecule also displayed an IC50 in series [2] of 4.2 nM.

Consider `NS(=O)(=O)c1ncc(Cl)s1` [5-Chloro-2-thiazole sulfonamide], for which the Cysteine reactivity in series [1] was 0.00002. This molecule also had an IC50 in series [2] of 5.9 nM.

Regarding `NS(=O)(=O)c1nc2c(s1)CCCC2` [2-Sulfamyl-4,5,6,7-tetrahydrobenzothiazole], the IC50 in series [2] was found to be 15 nM.

In series [2], `NS(=O)(=O)c1nc(-c2ccccc2)cs1` [4-Phenyl-2-thiazole sulfonamide] had an IC50 of 20 nM.

Take `NS(=O)(=O)c1cnc([S+]([O-])c2ccccc2)s1` (stereo not shown) [2-Phenylsulfinyl-5-thiazole sulfonamide]: the Cysteine reactivity entry in series [1] is listed as “reactive”. Also, it took 12.7 nM to reach half-maximal inhibition in series [2] (IC50).

Regarding `COCOCC(=O)c1ncc(S(N)(=O)=O)s1` [2-(2-(methoxymethoxy)ethanoyl)-5-thiazole sulfonamide], in series [2], the IC50 was determined as 10.3 nM.

Molecule `NS(=O)(=O)c1ncc(SCCO)s1` [5-(2-Hydroxyethyl)thio-2-thiazole sulfonamide] returned an IC50 in series [2] of 6.6 nM.

Molecule `COC(=O)CCSc1cnc(S(N)(=O)=O)s1` [5-(2-Carbomethoxyethyl)thio-2-thiazole sulfonamide] displayed an IC50 in series [2] of 9.1 nM.

For the molecule `CCCCCCc1ncc(S(N)(=O)=O)s1` [2-Hexyl-5-thiazole sulfonamide, 2-(1-Hexyl)-5-thiazole sulfonamide], in series [2], the concentration for half-maximal inhibition (IC50) was 20.6 nM.

In the case of `Cc1csc(S(N)(=O)=O)n1` [4-Methyl-2-thiazole sulfonamide], the Cysteine reactivity in series [1] turned out to be 0.00005. 120 nM corresponded to half-maximal inhibition in series [2] (IC50).

With `CC[S+]([O-])c1cnc(S(N)(=O)=O)s1` (stereo not shown) [5-Ethylsufinyl-2-thiazole sulfonamide, 5-Ethylsulfinyl-2-thiazole sulfonamide], the Cysteine reactivity result in series [1] is given as “reactive”. Also, in series [2], the IC50 worked out at 11.4 nM.

Turning to `CCCCC#Cc1ncc(S(N)(=O)=O)s1` [2-(1-Hexynyl)-5-thiazole sulfonamide], the Cysteine reactivity in series [1] was found to be 0.001. The molecule also yielded an IC50 in series [2] of 7.7 nM.

In series [1], `CCCCC#Cc1cnc(S(N)(=O)=O)s1` [5-(1-Hexynyl)-2-thiazole sulfonamide] registered a Cysteine reactivity of 0.00019. Half-maximal inhibition in series [2] (IC50) required 5.6 nM.

Molecule `COc1ccc(-c2nc(S(N)(=O)=O)sc2Cl)cc1` [5-Chloro-4-(4-methoxyphenyl)-2-thiazole sulfonamide] came in with a concentration for half-maximal inhibition (IC50) in series [2] of 30 nM.

As for `NS(=O)(=O)c1ncc(Sc2ccccc2)s1` [5-(Phenylthio)-2-thiazole sulfonamide], the Cysteine reactivity in series [1] stood at 0.005. For the same molecule, the IC50 in series [2] stood at 2.7 nM.

`CC(C)(C)NS(=O)(=O)c1ncc(S(N)(=O)=O)s1` [2-(N-t-butylsulfamyl)-5-thiazole sulfonamide] showed an IC50 in series [2] of 5.3 nM.

With `CCCCOc1ncc(S(N)(=O)=O)s1` [2-(1-Butoxy)-5-thiazole sulfonamide], in series [1], the Cysteine reactivity is on record as less than 0.00005. Besides, inhibition in series [2] was half-maximal at 16 nM (IC50).

In series [1], `CCOC(=O)c1csc(S(N)(=O)=O)n1` [4-Carboethoxy-2-thiazole sulfonamide, 4-carboethoxy-2-thiazole sulfonamide] came in with a Cysteine reactivity of less than 0.000005. The same molecule yielded an IC50 in series [2] of 77 nM.

In series [2], `COc1ccc(-c2csc(S(N)(=O)=O)n2)cc1` [4-(4-Methoxyphenyl)-2-thiazole sulfonamide] came in with an IC50 of 33 nM.

Consider `CCCCCC(=O)c1ncc(S(N)(=O)=O)s1` [2-Hexanoyl-5-thiazole sulfonamide, 2-(1-Hexanoyl)-5-thiazole sulfonamide], for which the Cysteine reactivity in series [1] was found to be 0.00007. The molecule further showed an IC50 in series [2] of 3.5 nM.

On to `NS(=O)(=O)c1ncc(S(=O)(=O)c2ccccc2)s1` [5-Phenylsulfonyl-2-thiazole sulfonamide, 5-(Phenylsulfonyl)-2-thiazole sulfonamide], for which, in series [1], the Cysteine reactivity result is “reactive”. Also, the IC50 in series [2] was 6 nM.

On to `CN(C)CCCC(=O)c1ncc(S(N)(=O)=O)s1` [2-(4-(N,N-dimethyl)aminobutanoyl)-5-thiazole sulfonamide], for which, in series [2], the IC50 is 26 nM.

For the molecule `Cc1sc(S(N)(=O)=O)nc1-c1ccccc1` [5-Methyl-4-phenyl-2-thiazole sulfonamide], in series [1], the Cysteine reactivity result is given as “N.R”. The molecule further came in with an IC50 in series [2] of 84 nM.

For `CCSc1ncc(S(N)(=O)=O)s1` [2-(Ethylthio)-5-thiazole sulfonamide, 2-Ethylthio-5-thiazole sulfonamide], the Cysteine reactivity in series [1] was less than 0.0000024. In addition, the 50% inhibitory concentration (IC50) in series [2] came out at 6.3 nM.

For the molecule `CC(=O)OCCCC(=O)c1cnc(S(N)(=O)=O)s1` [5-(4-acetoxybutanoyl)-2-thiazole sulfonamide], in series [1], the Cysteine reactivity result is “reactive”. For the same molecule, the 50% inhibitory concentration (IC50) in series [2] came to 8.4 nM.

For the molecule `CCCCCC(O)c1ncc(S(N)(=O)=O)s1` (stereo not shown) [2-(1-Hydroxyhexyl)-5-thiazole sulfonamide], the concentration for half-maximal inhibition (IC50) in series [2] came out at 10 nM.

For the molecule `CN1CCN(S(=O)(=O)c2ncc(S(N)(=O)=O)s2)CC1` [4-methyl-1-(2-(5-sulfamylthiazoyl)sulfonyl)piperazine], the Cysteine reactivity result in series [1] is listed as “reactive”. Further, the midpoint of inhibition in series [2], the IC50, lay at 9.3 nM.

Take `CN(C)CCN(C)S(=O)(=O)c1ncc(S(N)(=O)=O)s1` [2-(N-Methyl-N-(dimethylamino)ethyl)sulfamyl-5-thiazole sulfonamide]: the Cysteine reactivity result in series [1] is listed as “reactive”. The molecule further yielded an IC50 in series [2] of 14.5 nM.

The values above are taken from patent US5519040A, “Substituted thiazole sulfonamides as antiglaucoma agents” (Allergan, priority 1994, dated 1996).
